From patent US8420654B2 (Eli Lilly and Company, priority 2008, dated 2013)

Experiments:
hCB-2 [1] = target: T1, hCB-2 (Homo sapiens, UniProt P34972); assay: hCB2-Sf9 agonist mode SPA GTP-γ-35S binding assay; assay type: biochemical; details: human CB-2 Sf9 membranes, read-out: hCB-2 SPA GTPγS Sf9 Membrane Agonist Relative EC50
T1 construct: purchased Perkin Elmer, Boston, Mass; host or cells: Sf9 insect cells (membranes)
Procedure: (§1) Compounds of the present invention may be tested for functional activity at the CB-1 and CB-2 receptors in both agonist and antagonist modes using SPA (Scintillation Proximity Assay) based GTP-γ-^35S binding assays. All assay components are prepared in assay buffer (20 mM HEPES, 100 mM NaCl, 5 mM MgCl2, pH 7.4) at room temperature. Semi-log dilutions of test compound are prepared in assay buffer containing BSA (0.125% final conc.) for the agonist mode assays. For the antagonist mode assays, test compounds are prepared in the same manner but also include an 80% efficacious dose of a full agonist (methanandamide). GTP-γ^35S binding for the antagonist assay may be measured in a 96 well format using a modification of an antibody capture technique previously described. (DeLapp, N W, et al. (1999) J Pharmacol Exp Ther 289:946-955.) The CB-2 receptor agonist activity may be measured using a similar method using hCB2-Sf9 membranes. The CB-1 receptor agonist activity may be measured using a whole membrane capture technique using hCB1-CHO membranes. All incubations are done at room temperature.
The hCB2-5f9 assay is run essentially as for the hCB1-sf9 and hCB2-sf9 antagonist assays above, with no challenging agonist added. 1 μM (final conc.) GDP is added to the membrane solution and nonidet P40, anti-Gi-antibody, and SPA bead are added together in a cocktail.
(§2) Data are analyzed as follows: Background is subtracted from all wells. Percent agonist efficacy is determine by normalizing agonist/inverse agonist dose response data to the response obtained for a full agonist (methanandamide). Percent antagonist inhibition is calculated by first normalizing the data to the signal generated by a saturating concentration of the full agonist (methanandamide). Then the data are analyzed using a 4-parameter logistic reduced fit (Activity Base™ and XLFit3™ from IDBS, Emeryville, Calif.). Kb values are determined using a modification of the Cheng-Prusoff relationship: Kb=IC50/(1+[agonist]/EC50), where “IC50” is determined from a four parameter fit of displacement curves, “[agonist]” is the agonist challenge concentration (nM), and “EC50” is determined from a four parameter fit of a full agonist concentration response curve (Cheng and Prusoff 1973). Mean Kb values are calculated as a mean of at least three independent determinations±standard error of the mean (SEM). (Cheng Y C and Prusoff W H. (1973), Biochem Pharmacol 22:3099-3108.) Exemplified compounds are found to be potent CB-1 inverse agonists (Kb≦10 nM, typically <2 nM) and to be selective over the CB-2 receptor (Kb CB-2/Kb CB-1>500, typically >1000).

hCB-1 [2] = target: T2, hCB-1 (Homo sapiens, UniProt P21554); assay: hCB1-CHO antagonist mode SPA GTP-γ-35S binding assay; assay type: biochemical; details: human CB-1 CHO membranes, antagonist mode vs methanandamide; read-out: hCB-1 SPA GTPγS CHO Membrane Antagonist Kb
T2 construct: purchased Applied Cell Sciences, Rockville, Md; host or cells: CHO cells (membranes)
T2 sequence (P21554 whole entry): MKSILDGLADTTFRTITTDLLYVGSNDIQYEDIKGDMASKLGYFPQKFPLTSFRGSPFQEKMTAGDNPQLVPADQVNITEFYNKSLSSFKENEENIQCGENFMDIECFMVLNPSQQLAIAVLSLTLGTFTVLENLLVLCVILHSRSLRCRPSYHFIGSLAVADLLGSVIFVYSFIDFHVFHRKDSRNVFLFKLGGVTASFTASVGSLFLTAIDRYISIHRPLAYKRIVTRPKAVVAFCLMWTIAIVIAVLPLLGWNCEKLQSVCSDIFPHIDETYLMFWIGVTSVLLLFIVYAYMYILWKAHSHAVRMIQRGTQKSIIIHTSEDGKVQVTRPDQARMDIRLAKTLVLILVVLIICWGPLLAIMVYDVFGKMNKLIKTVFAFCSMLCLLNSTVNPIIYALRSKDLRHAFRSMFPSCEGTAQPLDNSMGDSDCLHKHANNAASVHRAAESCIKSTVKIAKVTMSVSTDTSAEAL
Procedure: as §1
(§3) hCB1-CHO and rCB1-CHO Antagonist Assays:
hCB1-CHO or rCB1-CHO membranes (Applied Cell Sciences, Rockville, Md.) and GDP (1 μM final) are added to ice cold assay buffer and homogenized. Diluted compounds, GTP-γ-^35S (500 nM final conc.) and membranes are added to wells of an assay plate and incubated for 30 min. at room temperature. Next, a mixture containing Nonidet P40 detergent (0.2% final conc.), rabbit polyclonal IgG Gαi-3 antibody (provided by Covance, Princeton, N.J.), and 1.25 mg anti-rabbit antibody scintillation proximity assay beads (GE Healthcare, Piscataway, N.J.) is added. The plates are sealed, vortexed, and incubated for an additional 2 hr. Plates are then centrifuged at 700×g for 10 min. and the radioactivity counted.
Data are analyzed as follows: Background is subtracted from all wells. […] Percent antagonist inhibition is calculated by first normalizing the data to the signal generated by a saturating concentration of the full agonist (methanandamide). Then the data are analyzed using a 4-parameter logistic reduced fit (Activity Base™ and XLFit3™ from IDBS, Emeryville, Calif.). Kb values are determined using a modification of the Cheng-Prusoff relationship: Kb=IC50/(1+[agonist]/EC50), where “IC50” is determined from a four parameter fit of displacement curves, “[agonist]” is the agonist challenge concentration (nM), and “EC50” is determined from a four parameter fit of a full agonist concentration response curve (Cheng and Prusoff 1973). Mean Kb values are calculated as a mean of at least three independent determinations±standard error of the mean (SEM). […]

hCB-1 [3] = target: T2, hCB-1; assay: hCB1-CHO agonist mode SPA GTP-γ-35S binding assay; assay type: biochemical; details: for hCB-1 SPA GTPγS CHO Membrane Agonist % Relative Efficacy: normalized to full agonist methanandamide, below zero = inverse agonist
Procedure: as §1
hCB1-CHO membrane, GDP (1 μM final conc.), and saponin (10 ng/mL final conc., Sigma, St Louis, Mo.) are combined and prepared on ice as for the antagonist assays, above. Diluted test compounds, GTP-γ-^35S (500 nM final conc.) and membranes are combined in the assay plate and incubated for 30 min. Then 1 mg/well Wheatgerm Agglutinin SPA beads (GE Healthcare, Piscataway, N.J.) are added, plates are sealed and vortexed and incubate for 1 hr. before spinning and counting in the same fashion as for the antagonist assays, above.
as §2

CYP2C9 = target: T3, CYP2C9 (Homo sapiens, UniProt P11712); assay: Human CYP fingerprinting, sulfaphenazole inhibitor; assay type: in vitro ADME; details: 4 μM, human liver microsomes, 30 min, sulfaphenazole 5 μM
T3 construct: pooled, mixed gender, human liver microsomes; from tissue; host or cells: pooled, mixed gender human liver microsomes
T3 sequence (P11712 whole entry): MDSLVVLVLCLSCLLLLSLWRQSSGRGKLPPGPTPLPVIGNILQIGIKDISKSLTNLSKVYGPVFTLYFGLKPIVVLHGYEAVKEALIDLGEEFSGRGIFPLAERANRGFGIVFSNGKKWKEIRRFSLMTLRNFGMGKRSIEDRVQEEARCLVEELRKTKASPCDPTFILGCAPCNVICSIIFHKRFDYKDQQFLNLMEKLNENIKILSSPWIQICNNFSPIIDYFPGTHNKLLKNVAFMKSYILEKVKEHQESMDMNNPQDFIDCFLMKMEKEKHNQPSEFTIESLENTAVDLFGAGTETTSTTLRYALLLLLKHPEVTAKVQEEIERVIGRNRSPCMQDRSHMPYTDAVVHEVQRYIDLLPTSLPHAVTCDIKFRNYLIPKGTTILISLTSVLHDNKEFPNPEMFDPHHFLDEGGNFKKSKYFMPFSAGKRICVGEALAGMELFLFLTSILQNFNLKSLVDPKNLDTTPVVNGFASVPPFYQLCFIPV
Procedure: (§4) CYP fingerprinting is well established technique and is used as an indication of potential risk of drug-drug interactions in the pharmaceutical sciences. Compounds of the present invention may be assayed by well known methods, essentially as follows: Compounds are incubated at 37° C. at a final concentration of 4 μM with pooled, mixed gender, human liver microsomes and 1 mM NADPH ([…]) (final conc.) for 0 and 30 min. without any CYP inhibitor and with each CYP inhibitor in separate incubations for 30 min. Each inhibitor is specific for an individual cytochrome P450. The specific inhibitors used for CYPs 2C9, 2D6 and 3A were sulfaphenazole, quinidine and ketoconazole, respectively. Ketoconazole (CYP3A) is made up at 25 mM in DMSO and then diluted in buffer to a final concetration of 10 μM. Quinidine (CYP2D6) is made up at 5 mM in 50/50 acetonitrile/water and then diluted in buffer to a final concetration of 10 μM. Sulfaphenazole (CYP2C9) is made up at 100 mM in DMSO and then diluted in buffer to a final concetration of 5 μM. Samples are analyzed by LC-MS in positive or negative electrospray mode using a Waters Acquity Ultra Performance LC coupled to a MicroMass Q-T of-2 mass spectrometer.
(§5) Data are analyzed using MetaboLynx™ version 4.1. With inhibitor present, a reduction in metabolite peak area of less than 30% (relative to the uninhibited control incubation) receives a designation of low risk of Drug Drug Interaction (DDI), a reduction in peak area between 30% and 70% receives a moderate risk of DDI and a reduction of more than 70% receives a high risk of DDI.

rCB-1 = target: T4, rCB-1 (Rattus norvegicus, UniProt P20272); assay: rCB1-CHO antagonist mode SPA GTP-γ-35S binding assay; assay type: biochemical; details: rat CB-1 CHO membranes, antagonist mode vs methanandamide; read-out: rCB-1 SPA GTPγS CHO Membrane Antagonist Kb
T4 construct: purchased Applied Cell Sciences, Rockville, Md; host or cells: CHO cells (membranes)
T4 sequence (P20272 whole entry): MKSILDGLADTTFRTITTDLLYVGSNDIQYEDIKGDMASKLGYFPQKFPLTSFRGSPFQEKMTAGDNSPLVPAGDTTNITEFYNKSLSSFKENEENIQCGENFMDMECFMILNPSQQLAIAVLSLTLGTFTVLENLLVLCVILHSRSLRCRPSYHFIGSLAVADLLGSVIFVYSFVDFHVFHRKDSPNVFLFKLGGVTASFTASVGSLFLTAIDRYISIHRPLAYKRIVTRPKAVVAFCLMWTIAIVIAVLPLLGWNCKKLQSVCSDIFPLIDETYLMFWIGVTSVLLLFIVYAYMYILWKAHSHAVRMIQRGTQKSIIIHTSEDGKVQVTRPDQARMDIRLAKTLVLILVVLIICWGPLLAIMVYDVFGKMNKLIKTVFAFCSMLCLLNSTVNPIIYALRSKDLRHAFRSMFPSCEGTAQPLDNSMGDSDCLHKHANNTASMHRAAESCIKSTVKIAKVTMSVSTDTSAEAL
Procedure: as §1, §3
hCB1-CHO or rCB1-CHO membranes (Applied Cell Sciences, Rockville, Md.) and GDP (1 μM final) are added to ice cold assay buffer and homogenized. […] Plates are then centrifuged at 700×g for 10 min. and the radioactivity counted.
Data are analyzed as follows: Background is subtracted from all wells. […] Percent antagonist inhibition is calculated by first normalizing the data to the signal generated by a saturating concentration of the full agonist (methanandamide). Then the data are analyzed using a 4-parameter logistic reduced fit (Activity Base™ and XLFit3™ from IDBS, Emeryville, Calif.). Kb values are determined using a modification of the Cheng-Prusoff relationship: Kb=IC50/(1+[agonist]/EC50), where “IC50” is determined from a four parameter fit of displacement curves, “[agonist]” is the agonist challenge concentration (nM), and “EC50” is determined from a four parameter fit of a full agonist concentration response curve (Cheng and Prusoff 1973). […]

hCB-2 [4] = target: T1, hCB-2; assay: hCB2-Sf9 antagonist mode SPA GTP-γ-35S binding assay; assay type: biochemical; details: human CB-2 Sf9 membranes, antagonist mode vs methanandamide; read-out: hCB-2 SPA GTPγS Sf9 Membrane Antagonist Kb
Procedure: as §1
hCB1-Sf9 and hCB2-Sf9 antagonist Assays:
hCB1-5f9 and hCB2-5f9 membranes (Perkin Elmer, Boston, Mass.) are prepared essentially as above with 1 μM (final conc.) GDP for hCB1-5f9 and 0.05 μM (final conc.) GDP for hCB2-5f9. The assay is run essentially as described for the CHO membranes above. Diluted membranes are pre-incubated with test compound for 15 min., which is followed by addition of GTP-γ-^35S and a further 35 min. incubation. Nonidet P40 and anti-Gi-antibody are added sequentially with a 15 min. incubation after each addition. The SPA beads are then added, the plates are sealed and vortexed, and then incubated at room temperature for 1 hr.
Data are analyzed as follows: Background is subtracted from all wells. Percent agonist efficacy is determine by normalizing agonist/inverse agonist dose response data to the response obtained for a full agonist (methanandamide). Percent antagonist inhibition is calculated by first normalizing the data to the signal generated by a saturating concentration of the full agonist (methanandamide). Then the data are analyzed using a 4-parameter logistic reduced fit (Activity Base™ and XLFit3™ from IDBS, Emeryville, Calif.). Kb values are determined using a modification of the Cheng-Prusoff relationship: Kb=IC50/(1+[agonist]/EC50), where “IC50” is determined from a four parameter fit of displacement curves, “[agonist]” is the agonist challenge concentration (nM), and “EC50” is determined from a four parameter fit of a full agonist concentration response curve (Cheng and Prusoff 1973). Mean Kb values are calculated as a mean of at least three independent determinations±standard error of the mean (SEM). […]

CYP3A = assay: Human CYP fingerprinting, ketoconazole inhibitor; assay type: in vitro ADME; details: 4 μM, human liver microsomes, 30 min, ketoconazole 10 μM
Procedure: as §4, §5

CYP2D6 = target: T5, CYP2D6 (Homo sapiens, UniProt P10635); assay: Human CYP fingerprinting, quinidine inhibitor; assay type: in vitro ADME; details: 4 μM, human liver microsomes, 30 min, quinidine 10 μM
T5 construct: pooled, mixed gender, human liver microsomes; from tissue; host or cells: pooled, mixed gender human liver microsomes
T5 sequence (P10635 whole entry): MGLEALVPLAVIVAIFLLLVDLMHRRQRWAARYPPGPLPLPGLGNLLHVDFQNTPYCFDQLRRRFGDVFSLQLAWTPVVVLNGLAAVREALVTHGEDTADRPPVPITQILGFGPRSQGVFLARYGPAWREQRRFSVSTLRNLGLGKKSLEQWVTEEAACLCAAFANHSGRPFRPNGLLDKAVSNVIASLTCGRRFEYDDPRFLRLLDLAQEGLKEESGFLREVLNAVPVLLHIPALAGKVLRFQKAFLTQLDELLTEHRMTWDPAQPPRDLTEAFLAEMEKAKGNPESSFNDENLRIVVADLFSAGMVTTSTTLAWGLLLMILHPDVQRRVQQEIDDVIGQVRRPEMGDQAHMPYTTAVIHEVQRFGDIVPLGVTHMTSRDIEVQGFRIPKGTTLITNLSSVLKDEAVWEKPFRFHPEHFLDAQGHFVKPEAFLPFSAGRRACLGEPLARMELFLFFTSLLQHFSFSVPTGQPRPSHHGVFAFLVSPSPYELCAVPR
Procedure: as §4, §5

T1 sequence (P34972 whole entry): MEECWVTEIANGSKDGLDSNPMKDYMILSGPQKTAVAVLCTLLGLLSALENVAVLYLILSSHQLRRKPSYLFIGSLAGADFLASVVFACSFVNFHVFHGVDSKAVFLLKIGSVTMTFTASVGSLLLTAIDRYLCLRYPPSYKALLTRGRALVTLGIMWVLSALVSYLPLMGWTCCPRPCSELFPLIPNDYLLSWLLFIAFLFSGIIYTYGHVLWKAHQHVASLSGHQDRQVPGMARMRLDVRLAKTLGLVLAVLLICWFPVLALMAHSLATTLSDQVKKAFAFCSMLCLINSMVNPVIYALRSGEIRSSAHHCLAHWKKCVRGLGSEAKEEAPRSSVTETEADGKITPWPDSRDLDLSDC

Row | EC50 (hCB-1 [3]; human CB-1 CHO membranes, agonist mode (inverse agonism), read-out: hCB-1 SPA GTPγS CHO Membrane Agonist Relative EC50 inverse) | SMILES | EC50 (hCB-2 [1]) | Kb (hCB-1 [2]) | hCB-1 SPA GTPγS CHO Membrane Agonist % Relative Efficacy (hCB-1 [3]) | Risk of Drug Drug Interaction (DDI) CYP2C9 (CYP2C9) | Kb (rCB-1) | Kb (hCB-2 [4]) | Risk of Drug Drug Interaction (DDI) CYP3A (CYP3A) | Risk of Drug Drug Interaction (DDI) CYP2D6 (CYP2D6)
1 | – | CC(C)(N[C@@H]1C[C@H](c2cccc(OC(F)(F)F)c2)N(c2ccc(C(F)(F)F)cc2)C1=O)c1ccnc(C(F)(F)F)n1 [Example 1, (3R,5R)-3-[1-Methyl-1-(2-trifluoromethyl-pyrimidin-4-yl)-ethylamino]-5-(3-trifluoromethoxy-phenyl)-1-(4-trifluoromethyl-phenyl)-pyrrolidin-2-one] | > 8710 nM | 0.895 nM | −99.3% | low (a reduction in metabolite peak area of less than 30% (relative to the uninhibited control incubation) receives a designation of low risk of Drug Drug Interaction (DDI)) | 0.177 nM | > 8710 nM | – | –
2 | 2.39 nM | CC(C)(N[C@@H]1C[C@H](c2cccc(OC(F)(F)F)c2)N(c2ccc(C(F)(F)F)cc2)C1=O)c1ccnc(C2CC2)n1 [Example 2, (3R,5R)-3-[1-(2-Cyclopropyl-pyrimidin-4-yl)-1-methyl-ethylamino]-5-(3-trifluoromethoxy-phenyl)-1-(4-trifluoromethyl-phenyl)-pyrrolidin-2-one] | > 10800 nM | 0.644 nM | −108% | low (a reduction in metabolite peak area of less than 30% (relative to the uninhibited control incubation) receives a designation of low risk of Drug Drug Interaction (DDI)) | – | > 10800 nM | low (a reduction in metabolite peak area of less than 30% (relative to the uninhibited control incubation) receives a designation of low risk of Drug Drug Interaction (DDI)) | low (a reduction in metabolite peak area of less than 30% (relative to the uninhibited control incubation) receives a designation of low risk of Drug Drug Interaction (DDI))
